Source: ChEMBL document CHEMBL4052728, “Diaminopimelic acid (DAP) analogs bearing isoxazoline moiety as selective inhibitors against meso-diaminopimelate dehydrogenase (m-Ddh) from Porphyromonas gingivalis” (Bioorg Med Chem Lett, 2017)
In brackets after ≈: the same amount, converted by molar mass. Activity calls are given as the source filed them. No cut-off for these calls is given here.

What was measured:
[1] = target: T1, Meso-diaminopimelate D-dehydrogenase (Porphyromonas gingivalis (strain ATCC BAA-308 / W83), UniProt Q7MW40); assay: Inhibition of Porphyromonas gingivalis m-Ddh expressed in Escherichia coli BL21 (DE3) pLysS at pH 7.8 using meso-diaminopimelate as substrate by spectrophotometric method
T1 sequence (Q7MW40 whole entry): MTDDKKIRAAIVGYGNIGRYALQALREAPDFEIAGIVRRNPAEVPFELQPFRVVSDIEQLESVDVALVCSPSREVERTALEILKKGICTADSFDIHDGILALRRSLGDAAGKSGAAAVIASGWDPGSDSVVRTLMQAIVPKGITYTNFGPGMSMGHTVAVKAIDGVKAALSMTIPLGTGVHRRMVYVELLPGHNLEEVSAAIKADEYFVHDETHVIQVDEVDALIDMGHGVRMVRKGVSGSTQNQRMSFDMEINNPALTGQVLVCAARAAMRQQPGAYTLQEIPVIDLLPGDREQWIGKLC

[2] = target: T1, Meso-diaminopimelate D-dehydrogenase; assay: Inhibition of Porphyromonas gingivalis m-Ddh expressed in Escherichia coli BL21 (DE3) pLysS at pH 10.5 using meso-diaminopimelate as substrate by spectrophotometric method
Porphyromonas gingivalis [3] = assay: Antibacterial activity against Porphyromonas gingivalis W83 after 24 hrs by broth microdilution method; format: functional; details: W83, 24 h
Porphyromonas gingivalis [4] = assay: Antibacterial activity against Porphyromonas gingivalis ATCC 33277 after 24 hrs by broth microdilution method; format: functional; details: ATCC 33277, 24 h
Fusobacterium nucleatum = assay: Growth inhibition of Fusobacterium nucleatum ATCC 25586 up to 3 mM after 24 hrs by broth microdilution method
Staphylococcus aureus = assay: Growth inhibition of Staphylococcus aureus N315 up to 3 mM after 24 hrs by broth microdilution method
[5] = target: T2, Meso-diaminopimelate D-dehydrogenase (Porphyromonas gingivalis (strain ATCC BAA-308 / W83)) (UniProt Q7MW40); assay: Inhibition of Porphyromonas gingivalis m-Ddh expressed in Escherichia coli BL21 (DE3) pLysS up to 1 mM at pH 7.8 using meso-diaminopimelate as substrate by spectrophotometric method
T2 sequence (whole entry): T1 sequence (Q7MW40 whole entry)

[6] = target: T2, Meso-diaminopimelate D-dehydrogenase (Porphyromonas gingivalis (strain ATCC BAA-308 / W83)); assay: Inhibition of Porphyromonas gingivalis m-Ddh expressed in Escherichia coli BL21 (DE3) pLysS up to 3 mM at pH 10.5 using meso-diaminopimelate as substrate by spectrophotometric method

IC50 [1] [µM] | IC50 [2] [µM] | MIC (Porphyromonas gingivalis [3]) [µM] | MIC (Porphyromonas gingivalis [4]) [µM] | inhibition [5] | inhibition [6] | Structure (SMILES) | growth inhibition (GI) (Fusobacterium nucleatum) | growth inhibition (GI) (Staphylococcus aureus)
14.9 | 211 | 773 (≈ 156 µg/mL) | 1880 (≈ 379 µg/mL) |  |  | N[C@@H](C[C@H]1CC(C(=O)O)=NO1)C(=O)O | Non-Toxic | Non-Toxic
 |  |  |  | inactive | inactive | N[C@@H](C[C@@H]1CC(C(=O)O)=NO1)C(=O)O |  | 
